From ChEMBL document CHEMBL1201862, “PubChem BioAssay data set” (2004)
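The compound was tested at five concentrations on cells cultured in 96-well plates, with a 48-hour exposure period. The concentration for 50% growth inhibition is given as GI50.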 Activity calls are given as the source filed them. No stated cut-off is given here; in the data, active = GI50 up to about 1.1 µM and inactive = higher.

How the values were obtained:
Assay in all cases: NCI-60 cell line screen, 48 h
786-0 = system: 786-0
A498 = system: A498
A549 = system: A549
ACHN = system: ACHN
BT-549 = system: BT-549
CAKI-1 = system: CAKI-1
CCRF-CEM = system: CCRF-CEM
COLO 205 = system: COLO 205
DU-145 = system: DU-145
EKVX = system: EKVX
HCC 2998 = system: HCC 2998
HCT-116 = system: HCT-116
HCT-15 = system: HCT-15
HOP-62 = system: HOP-62
HT-29 = system: HT-29
Hs-578T = system: Hs-578T
IGROV-1 = system: IGROV-1
KM12 = system: KM12
LOX IMVI = system: LOX IMVI
M14 = system: M14
MCF7 = system: MCF7
MDA-MB-231 = system: MDA-MB-231
MDA-MB-435 = system: MDA-MB-435
MDA-N = system: MDA-N
MOLT-4 = system: MOLT-4
Malme-3M = system: Malme-3M
NCI-H226 = system: NCI-H226
NCI-H460 = system: NCI-H460
NCI-H522 = system: NCI-H522
NCI/ADR-RES = system: NCI/ADR-RES
OVCAR-3 = system: OVCAR-3
OVCAR-4 = system: OVCAR-4
OVCAR-5 = system: OVCAR-5
OVCAR-8 = system: OVCAR-8
PC-3 = system: PC-3
RPMI-8226 = system: RPMI-8226
RXF 393 = system: RXF 393
SF-268 = system: SF-268
SF-295 = system: SF-295
SK-MEL-28 = system: SK-MEL-28
SK-MEL-2 = system: SK-MEL-2
SK-MEL-5 = system: SK-MEL-5
SK-OV-3 = system: SK-OV-3
SN12C = system: SN12C
SNB-19 = system: SNB-19
SNB-75 = system: SNB-75
SR = system: SR
SW-620 = system: SW-620
T47D = system: T47D
TK-10 = system: TK-10
U-251 = system: U-251
UACC-257 = system: UACC-257
UACC-62 = system: UACC-62
UO-31 = system: UO-31
HOP-92 = system: HOP-92
K562 = system: K562
NCI-H23 = system: NCI-H23
SF-539 = system: SF-539

SMILES: Cn1c(N)c(/C=N/NC(=O)CC#N)c(=O)n(C)c1=O
- GI50 (786-0): > 100 µM (inactive)
- GI50 (A498): > 100 µM (inactive)
- GI50 (A549): > 100 µM (inactive)
- GI50 (ACHN): > 100 µM (inactive)
- GI50 (BT-549): > 100 µM (inactive)
- GI50 (CAKI-1): > 100 µM (inactive)
- GI50 (CCRF-CEM): > 100 µM (inactive)
- GI50 (COLO 205): > 100 µM (inactive)
- GI50 (DU-145): > 100 µM (inactive)
- GI50 (EKVX): > 100 µM (inactive)
- GI50 (HCC 2998): > 100 µM (inactive)
- GI50 (HCT-116): > 100 µM (inactive)
- GI50 (HCT-15): > 100 µM
- GI50 (HOP-62): > 100 µM (inactive)
- GI50 (HT-29): > 100 µM (inactive)
- GI50 (Hs-578T): > 100 µM (inactive)
- GI50 (IGROV-1): > 100 µM (inactive)
- GI50 (KM12): > 100 µM (inactive)
- GI50 (LOX IMVI): > 100 µM (inactive)
- GI50 (M14): > 100 µM (inactive)
- GI50 (MCF7): > 100 µM (inactive)
- GI50 (MDA-MB-231): > 100 µM (inactive)
- GI50 (MDA-MB-435): > 100 µM (inactive)
- GI50 (MDA-N): > 100 µM (inactive)
- GI50 (MOLT-4): > 100 µM (inactive)
- GI50 (Malme-3M): 59.8 µM (inactive)
- GI50 (NCI-H226): > 100 µM (inactive)
- GI50 (NCI-H460): > 100 µM (inactive)
- GI50 (NCI-H522): > 100 µM (inactive)
- GI50 (NCI/ADR-RES): > 100 µM (inactive)
- GI50 (OVCAR-3): > 100 µM (inactive)
- GI50 (OVCAR-4): > 100 µM (inactive)
- GI50 (OVCAR-5): > 100 µM (inactive)
- GI50 (OVCAR-8): > 100 µM (inactive)
- GI50 (PC-3): > 100 µM (inactive)
- GI50 (RPMI-8226): > 100 µM (inactive)
- GI50 (RXF 393): > 100 µM (inactive)
- GI50 (SF-268): > 100 µM (inactive)
- GI50 (SF-295): > 100 µM (inactive)
- GI50 (SK-MEL-28): > 100 µM (inactive)
- GI50 (SK-MEL-2): > 100 µM (inactive)
- GI50 (SK-MEL-5): > 100 µM (inactive)
- GI50 (SK-OV-3): > 100 µM (inactive)
- GI50 (SN12C): > 100 µM (inactive)
- GI50 (SNB-19): > 100 µM (inactive)
- GI50 (SNB-75): > 100 µM (inactive)
- GI50 (SR): > 100 µM (inactive)
- GI50 (SW-620): > 100 µM (inactive)
- GI50 (T47D): > 100 µM (inactive)
- GI50 (TK-10): > 100 µM (inactive)
- GI50 (U-251): > 100 µM (inactive)
- GI50 (UACC-257): > 100 µM (inactive)
- GI50 (UACC-62): > 100 µM (inactive)
- GI50 (UO-31): > 100 µM (inactive)

SMILES: c1ccc(Nc2nnc(Cn3ccc4ccccc43)s2)cc1
- GI50 (786-0): 52.7 µM (inactive)
- GI50 (A498): > 100 µM (inactive)
- GI50 (A549): 32.4 µM (inactive)
- GI50 (ACHN): 39.8 µM (inactive)
- GI50 (BT-549): > 100 µM (inactive)
- GI50 (CAKI-1): 22.4 µM (inactive)
- GI50 (CCRF-CEM): 49.3 µM (inactive)
- GI50 (COLO 205): 45.1 µM (inactive)
- GI50 (DU-145): 92.9 µM (inactive)
- GI50 (EKVX): 50.8 µM (inactive)
- GI50 (HCC 2998): > 100 µM (inactive)
- GI50 (HCT-116): 42.7 µM (inactive)
- GI50 (HCT-15): 38.5 µM
- GI50 (HOP-62): 29.9 µM (inactive)
- GI50 (HOP-92): 54.7 µM (inactive)
- GI50 (HT-29): 57 µM (inactive)
- GI50 (Hs-578T): 65.6 µM (inactive)
- GI50 (IGROV-1): 46.9 µM (inactive)
- GI50 (K562): 31.2 µM (inactive)
- GI50 (KM12): 34.5 µM (inactive)
- GI50 (LOX IMVI): 56 µM (inactive)
- GI50 (M14): 59.8 µM (inactive)
- GI50 (MCF7): 40.3 µM (inactive)
- GI50 (MDA-MB-231): 38.3 µM (inactive)
- GI50 (MDA-MB-435): 83.2 µM (inactive)
- GI50 (MDA-N): > 100 µM (inactive)
- GI50 (MOLT-4): 23.1 µM (inactive)
- GI50 (NCI-H226): 58.3 µM (inactive)
- GI50 (NCI-H23): > 100 µM (inactive)
- GI50 (NCI-H460): 47 µM (inactive)
- GI50 (NCI-H522): 51.8 µM (inactive)
- GI50 (NCI/ADR-RES): 34.6 µM (inactive)
- GI50 (OVCAR-3): 24.5 µM (inactive)
- GI50 (OVCAR-4): 36.8 µM (inactive)
- GI50 (OVCAR-5): > 100 µM (inactive)
- GI50 (OVCAR-8): 64.6 µM (inactive)
- GI50 (PC-3): 19.2 µM (inactive)
- GI50 (RPMI-8226): 48.5 µM (inactive)
- GI50 (RXF 393): 73.5 µM (inactive)
- GI50 (SF-268): 56.8 µM (inactive)
- GI50 (SF-295): 15.9 µM (inactive)
- GI50 (SF-539): 35.6 µM (inactive)
- GI50 (SK-MEL-28): 80.5 µM (inactive)
- GI50 (SK-MEL-2): > 100 µM (inactive)
- GI50 (SK-MEL-5): 57.4 µM (inactive)
- GI50 (SK-OV-3): > 100 µM (inactive)
- GI50 (SN12C): > 100 µM (inactive)
- GI50 (SNB-19): 60 µM (inactive)
- GI50 (SNB-75): 20.9 µM (inactive)
- GI50 (SR): 12.8 µM (inactive)
- GI50 (SW-620): 87.3 µM (inactive)
- GI50 (T47D): 27.7 µM (inactive)
- GI50 (TK-10): 76.6 µM (inactive)
- GI50 (U-251): 42.4 µM (inactive)
- GI50 (UACC-257): > 100 µM (inactive)
- GI50 (UACC-62): 88.5 µM (inactive)
- GI50 (UO-31): 36.4 µM (inactive)
